The results in this text go back to patent US20240366540A1, “MITOFUSIN INHIBITORS AND USES THEREOF” (Albert Einstein College of Medicine, priority 2021, published 2024).

SMILES strings stand for the structures.

The subject of one experiment is A375 cells. Nature of the experiment: Cell viability, melanoma cells. The class given is cell-based. The conditions noted are these: A375, 72 hr, Cell titer Glo. Here is the method: (§1) Cell titer Glo was used to measure viability. Cells were treated with MFI8 for 72 hr (n=3, mean±SD).
(§2) Cell viability assay. Cells (5×10^3 cells/well) were seeded in a 96-well white plate and treated with serial dilutions of MASM7 or MFI8. Cell viability was assayed after 72 hrs by addition of CellTiter-Glo reagent according to the manufacturer's protocol (Promega). Luminescence was measured using a F200 PRO microplate reader (TECAN). Viability assays were performed in at least triplicate and the data normalized to vehicle-treated control wells. Dilutions of MASM7 or MFI8 were performed using a TECAN D300e Digital Dispenser from 10 mM stocks.

The subject of the next experiment is SKML-30 cells. In words: Cell viability, melanoma cells. In kind it is cell-based. The conditions noted are these: SKML-30, 72 hr, Cell titer Glo. Here is the method:
as §1, §2

Take `Cc1cccc(NC(C)c2cc(Cl)ccc2O)c1C` (centres unmarked) [MFI8, 4-Chloro-2-(1-((2,3-dimethylphenyl)amino)ethyl)phenol]: the viability entry in the experiment with A375 cells and in the experiment with SKML-30 cells was “concentration responsively reduces viability” each time.
